Results: ChEMBL document CHEMBL3860071, “Discovery and structure-activity relationship studies of quinolinone derivatives as potent IL-2 suppressive agents” (Bioorg Med Chem, 2016)
Active and inactive are the calls of the source. No cut-off for these calls is given here.

Legend:
Jurkat [1] = test: Immunosuppressive activity in human anti-CD3/anti-CD28 stimulated Jurkat T cells assessed as suppression of IL2 production at 10 uM pretreated with cells followed by anti-CD3/CD28 stimulation measured after 13 hrs by ELISA; format: functional
Jurkat [2] = test: Immunosuppressive activity in human PMA/ionomycin stimulated Jurkat T cells assessed as suppression of IL2 production pretreated with cells followed by PMA/ionomycin stimulation measured after 13 hrs by ELISA; format: functional, cell-based
[3] = Cytotoxicity against human Jurkat T cells assessed as cell survival at 10 uM measured after 3 days by MTT assay; format: toxicity, cell-based; settings: read-out: Survival
Jurkat [4] = test: Immunosuppressive activity in human PMA/ionomycin stimulated Jurkat T cells assessed as suppression of IL2 production at 1 uM pretreated with cells followed by PMA/ionomycin stimulation measured after 13 hrs by ELISA; format: functional
[5] = target: T1, NF-kappa-B inhibitor alpha (Homo sapiens) (UniProt P25963); test: Inhibition of IkappaBalpha phosphorylation in human anti-CD3/anti-CD28 stimulated Jurkat T cells at 10 uM pretreated with cells followed by anti-CD3/anti-CD28 stimulation measured up to 60 mins immunoblot analysis; format: cell-based
T1 sequence (whole entry): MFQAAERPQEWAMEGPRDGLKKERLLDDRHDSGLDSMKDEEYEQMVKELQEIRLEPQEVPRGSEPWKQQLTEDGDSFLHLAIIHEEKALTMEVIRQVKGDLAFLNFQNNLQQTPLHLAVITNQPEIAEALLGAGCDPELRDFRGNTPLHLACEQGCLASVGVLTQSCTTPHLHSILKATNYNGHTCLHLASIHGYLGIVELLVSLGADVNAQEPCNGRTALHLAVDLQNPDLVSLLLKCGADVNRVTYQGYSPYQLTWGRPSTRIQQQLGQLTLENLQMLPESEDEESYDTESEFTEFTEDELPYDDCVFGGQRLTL

[6] = target: T2, Nuclear factor of activated T-cells, cytoplasmic 1 (Homo sapiens) (UniProt O95644); test: Reduction in NFATc1 nuclear localization in human anti-CD3/anti-CD28 stimulated Jurkat T cells at 10 ug measured after 15 mins by SDS-PAGE and immunoblot analysis; format: cell-based
T2 sequence (whole entry): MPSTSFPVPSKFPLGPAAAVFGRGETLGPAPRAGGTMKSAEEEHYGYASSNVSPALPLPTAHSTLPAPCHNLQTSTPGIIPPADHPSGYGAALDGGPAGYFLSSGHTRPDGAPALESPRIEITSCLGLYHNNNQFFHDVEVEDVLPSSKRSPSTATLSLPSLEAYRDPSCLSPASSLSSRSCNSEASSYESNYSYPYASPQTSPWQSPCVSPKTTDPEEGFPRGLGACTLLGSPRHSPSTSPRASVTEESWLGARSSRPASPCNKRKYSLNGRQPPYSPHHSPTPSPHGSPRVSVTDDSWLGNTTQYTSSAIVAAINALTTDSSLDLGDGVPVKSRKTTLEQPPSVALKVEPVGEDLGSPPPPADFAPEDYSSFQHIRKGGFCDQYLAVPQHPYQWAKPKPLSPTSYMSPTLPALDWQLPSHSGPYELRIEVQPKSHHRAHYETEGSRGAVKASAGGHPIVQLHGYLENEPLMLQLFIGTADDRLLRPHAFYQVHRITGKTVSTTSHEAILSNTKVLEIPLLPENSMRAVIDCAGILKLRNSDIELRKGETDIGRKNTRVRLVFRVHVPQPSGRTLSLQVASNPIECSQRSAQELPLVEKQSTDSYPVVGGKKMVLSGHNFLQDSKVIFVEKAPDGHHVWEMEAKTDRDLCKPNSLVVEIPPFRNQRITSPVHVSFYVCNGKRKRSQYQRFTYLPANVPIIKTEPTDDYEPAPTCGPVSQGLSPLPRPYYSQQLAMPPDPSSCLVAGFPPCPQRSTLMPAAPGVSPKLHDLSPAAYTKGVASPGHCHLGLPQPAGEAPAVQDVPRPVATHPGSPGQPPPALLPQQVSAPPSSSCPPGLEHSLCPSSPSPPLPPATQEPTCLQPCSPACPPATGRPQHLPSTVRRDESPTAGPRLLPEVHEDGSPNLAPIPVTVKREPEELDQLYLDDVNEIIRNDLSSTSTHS

Jurkat [7] = test: Inhibition of NFkappaB activation in human anti-CD3/anti-CD28 stimulated Jurkat T cells at 10 uM measured by renilla luciferase reporter gene assay relative to control; format: cell-based
[8] = target: T3, Inhibitor of nuclear factor kappa-B kinase subunit beta (Homo sapiens) (UniProt O14920); test: Inhibition of recombinant full length human N-terminal His6-tagged IKKbeta expressed in baculovirus infected sf21 cells at 10 uM using IKKtide as substrate after 40 mins in presence of [gamma33P]ATP by scintillation counting method relative to control
T3 sequence (whole entry): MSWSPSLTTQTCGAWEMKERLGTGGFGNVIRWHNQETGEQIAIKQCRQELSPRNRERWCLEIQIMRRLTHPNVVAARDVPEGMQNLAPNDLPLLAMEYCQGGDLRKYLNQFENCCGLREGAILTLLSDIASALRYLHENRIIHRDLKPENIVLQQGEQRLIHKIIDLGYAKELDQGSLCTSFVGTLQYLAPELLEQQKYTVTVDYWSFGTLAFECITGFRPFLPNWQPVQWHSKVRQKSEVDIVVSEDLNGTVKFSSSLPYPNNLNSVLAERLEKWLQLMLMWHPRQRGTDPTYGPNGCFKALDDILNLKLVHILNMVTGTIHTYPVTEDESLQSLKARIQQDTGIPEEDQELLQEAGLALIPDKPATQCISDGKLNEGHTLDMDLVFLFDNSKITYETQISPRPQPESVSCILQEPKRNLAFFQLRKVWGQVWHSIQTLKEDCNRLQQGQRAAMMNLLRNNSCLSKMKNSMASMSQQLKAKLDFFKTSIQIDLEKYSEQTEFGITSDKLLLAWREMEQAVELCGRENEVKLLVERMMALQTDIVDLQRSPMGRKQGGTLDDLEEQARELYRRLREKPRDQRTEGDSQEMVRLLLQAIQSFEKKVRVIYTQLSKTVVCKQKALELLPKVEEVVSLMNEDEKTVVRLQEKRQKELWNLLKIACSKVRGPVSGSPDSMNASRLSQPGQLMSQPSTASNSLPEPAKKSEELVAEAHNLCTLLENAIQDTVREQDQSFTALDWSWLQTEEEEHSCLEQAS

CYP2C9 [9] = target: T4, CYP2C9 (Homo sapiens, UniProt P11712); test: Inhibition of recombinant human CYP2C9 expressed in baculosomes at 10 uM preincubated with protein prior to substrate addition measured after 40 mins in presence of NADP regeneration system by fluorimetric analysis; format: ADME
T4 sequence (P11712 whole entry): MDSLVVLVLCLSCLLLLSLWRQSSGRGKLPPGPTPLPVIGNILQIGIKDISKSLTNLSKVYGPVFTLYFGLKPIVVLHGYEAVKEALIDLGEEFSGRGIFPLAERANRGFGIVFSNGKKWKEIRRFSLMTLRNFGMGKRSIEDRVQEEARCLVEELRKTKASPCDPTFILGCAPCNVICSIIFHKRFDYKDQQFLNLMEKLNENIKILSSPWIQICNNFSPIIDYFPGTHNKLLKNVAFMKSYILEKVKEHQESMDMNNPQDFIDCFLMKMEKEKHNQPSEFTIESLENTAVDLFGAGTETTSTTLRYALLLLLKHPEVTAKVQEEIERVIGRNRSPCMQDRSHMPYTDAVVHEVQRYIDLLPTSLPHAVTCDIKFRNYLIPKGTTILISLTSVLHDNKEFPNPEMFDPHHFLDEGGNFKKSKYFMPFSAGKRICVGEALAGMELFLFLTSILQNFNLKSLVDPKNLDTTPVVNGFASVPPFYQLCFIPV

CYP2C9 [10] = target: T4, CYP2C9; test: Inhibition of recombinant human CYP2C9 expressed in baculosomes at 1 uM preincubated with protein prior to substrate addition measured after 40 mins in presence of NADP regeneration system by fluorimetric analysis; format: ADME
[11] = Half life in human liver S9 fraction at 5 uM in presence of NADPH by LC-MS/MS analysis; format: ADME, subcellular
[12] = Half life in rat liver […] S9 fraction at 5 uM in presence of NADPH by LC-MS/MS analysis; format: ADME, subcellular
[13] = Half life in mouse liver […] S9 fraction at 5 uM in presence of NADPH by LC-MS/MS analysis; format: ADME, subcellular

Structure (SMILES)	IC50 (Jurkat [2]) [nM]	viability at 72 h, 10 µM [3] [%]	inhibition at 1 µM (Jurkat [4]) [%]	also measured
O=C(NCCc1ccccc1)c1cc2c([N+](=O)[O-])cccc2n(Cc2ccc(OC(F)(F)F)cc2)c1=O	160	96	–	inhibition at 10 µM (Jurkat [1]): 79%
C/C=C/C[C@@H](C)[C@@H](O)[C@H]1C(=O)N[C@@H](CC)C(=O)N(C)CC(=O)N(C)[C@@H](CC(C)C)C(=O)N[C@@H](C(C)C)C(=O)N(C)[C@@H](CC(C)C)C(=O)N[C@@H](C)C(=O)N[C@H](C)C(=O)N(C)[C@@H](CC(C)C)C(=O)N(C)[C@@H](CC(C)C)C(=O)N(C)[C@@H](C(C)C)C(=O)N1C [CYCLOSPORINE]	11	–	–	–
CC(C)(C)c1ccc(Cn2c(=O)c(C(=O)NCCc3ccccc3)cc3c([N+](=O)[O-])cccc32)cc1	386	94	–	–
CC(C)c1ccc(Cn2c(=O)c(C(=O)NCCc3ccccc3)cc3c(Cl)cccc32)cc1	256	91	–	–
O=C(NCCc1ccccc1)c1cc2c([N+](=O)[O-])cccc2n(Cc2ccccc2)c1=O	–	91	–	–
COc1ccc(Cn2c(=O)c(C(=O)NCC(C)C)cc3c(N)cccc32)cc1	–	99	–	–
COc1ccc(Cn2c(=O)c(C(=O)NCCc3ccc(OC)c(O)c3)cc3c(N)cccc32)cc1	–	99	37	–
CCc1ccc(CCNC(=O)c2cc3c(N)cccc3n(Cc3ccc(OC)cc3)c2=O)cc1	–	97	–	–
COc1ccc(Cn2c(=O)c(C(=O)NCCc3ccccc3)cc3c(Cl)cccc32)cc1	–	87	44	–
COc1ccc(Cn2c(=O)c(C(=O)NCCc3ccc(Br)cc3)cc3c(N)cccc32)cc1	–	93	38	–
COc1ccc(Cn2c(=O)c(C(=O)NCCc3ccc(O)c(O)c3)cc3c(N)cccc32)cc1	–	98	14	–
COc1ccc(Cn2c(=O)c(C(=O)NCCc3ccc(Cl)cc3)cc3c(N)cccc32)cc1	–	96	19	–
CCc1ccc(Cn2c(=O)c(C(=O)NCCc3ccccc3)cc3c([N+](=O)[O-])cccc32)cc1	155	96	–	inhibition at 10 µM (Jurkat [1]): 81%
CC(C)c1ccc(Cn2c(=O)c(C(=O)NCCc3ccccc3)cc3c([N+](=O)[O-])cccc32)cc1	80	93	–	inhibition at 10 µM (Jurkat [1]): 83%; inhibition [5]: Active; inhibition [6]: Active; inhibition (Jurkat [7]): Active; inhibition [8]: 29%; inhibition at 40 min, 10 µM (CYP2C9 [9]): 65%; inhibition at 40 min, 1 µM (CYP2C9 [10]): 30%; half-life at 5 µM [11]: 7 min; half-life at 5 µM [12]: 7 min; half-life at 5 µM [13]: 7 min
COc1ccc(Cn2c(=O)c(C(=O)NCCc3ccccc3)cc3c([N+](=O)[O-])cccc32)cc1	924	96	–	–
COc1ccc(Cn2c(=O)c(C(=O)NCCc3ccc4c(c3)OCO4)cc3c(N)cccc32)cc1	–	96	31	–
COc1ccc(Cn2c(=O)c(C(=O)NCCCc3ccccc3)cc3c(N)cccc32)cc1	–	97	11	–
